Measured values taken from patent US20070149465A1, “COMPOSITIONS AND METHODS FOR PREVENTION AND TREATMENT OF CACHEXIA” (priority 2005, published 2007).
Read-outs that look alike come from different tables or passages of the source.

Columns and labels:
AH-inoculated rats = assay: Rat AH130 Ascites Hepatoma Model of Cancer Cachexia, AH-inoculated rats; type: in vivo, female Wistar rats; settings: for Carcass Weights Mean / Gastrocnemius Weights Mean / Heart Weights Mean: normalized to 100 g Day 5 Total Body Weight
Procedure: (§1) Following the method of Busquets et al (Busquets S, et al: Cancer Res 64:6725-31, 2004), female Wistar rats were inoculated (Day 0) intra-peritoneally (i.p.) with 2×10^7 cells/animal of Yoshida AH-130 ascites hepatoma (AH) cells. Control animals were inoculated with an equivalent amount of sterile saline solution. […] The animals were sacrificed on Day 5. Upon sacrifice, wet weights of heart and gastrocnemius muscle were determined. Carcass (after gastrocnemius, heart, and ascites removal) weight was also determined upon sacrifice.
(§2) Treatment Group=Inoculation Type/Vehicle, or Treatment Group=Inoculation Type/F(x)R(y) where, Inoculation Type is either AH or Saline, F is formoterol fumarate, R is roxithromycin, and the parenthetical values are formoterol fumarate and roxithromycin doses (i.p. in mg/kg).

Saline-inoculated rats = assay: Rat AH130 experiments, saline-inoculated control rats given drug; type: in vivo, female Wistar rats
Procedure: as §1, §2

[1] = Osmolality of formoterol filtrate in citrate buffers; type: physicochemical; settings: 25° C.
[2] = for Formoterol solubility: 25° C.
[3] = cited from earlier work; for estimated shelf-life: compositions of Banerjee et al.; for rate constant of decomposition: 60° C., buffer 5 mM, ionic strength 0.05
[4] = Exp 1 Group 3, AH, F 1, R 0 mg/kg i.p., Day 5
[5] = Exp 2 Group 7, AH, F 1, R 0 mg/kg i.p., Day 5
[6] = Exp 3 Group 13, AH, F 1, R 0 mg/kg i.p., Day 5
[7] = Exp 4 Group 18, AH, F 1, R 0 mg/kg i.p., Day 5, sample weight normalized to 100 g Day 5 Total Body Weight
[8] = Exp 2 Group 10, Saline, F 1, R 0 mg/kg i.p., Day 5, normalized to 100 g Day 5 Total Body Weight

## COc1ccc(C[C@@H](C)NC[C@H](O)c2ccc(O)c(NC=O)c2)cc1.COc1ccc(C[C@@H](C)NC[C@H](O)c2ccc(O)c(NC=O)c2)cc1.O=C(O)/C=C/C(=O)O [formoterol fumarate]
AH-inoculated rats; [4]
  Carcass Weights Mean: 95.35 g
  Gastrocnemius Weights Mean: 0.551 g
  Heart Weights Mean: 0.337 g
AH-inoculated rats; [5]
  Carcass Weights Mean: 89.7 g
  Gastrocnemius Weights Mean: 0.499 g
  Heart Weights Mean: 0.348 g
AH-inoculated rats; [6]
  Carcass Weights Mean: 93.1 g
  Gastrocnemius Weights Mean: 0.489 g
  Heart Weights Mean: 0.376 g
AH-inoculated rats; [7]
  Carcass Mean: 97.8
  Gastrocnemius Mean: 0.502
  Heart Mean: 0.367
AH-inoculated rats; Experiment 1, AH/F(1)R(0) group
  gastrocnemius muscle loss compared with AH/vehicle group: significantly less
Saline-inoculated rats; [8]
  Carcass Weights Mean: 97.6 g
  Gastrocnemius Weights Mean: 0.613 g
  Heart Weights Mean: 0.410 g
Saline-inoculated rats; Experiment 2, Saline/F(1)R(0) group
  gastrocnemius muscle weights compared with Saline/vehicle group: approximately the same
[1]; 20 mM citrate, pH 4
  Formoterol Filtrate osmolality: 49 mOsm/kG
[1]; 20 mM citrate, pH 5
  Formoterol Filtrate osmolality: 56 mOsm/kG
[1]; 20 mM citrate, pH 6
  Formoterol Filtrate osmolality: 60 mOsm/kG
[1]; 20 mM citrate, pH 7
  Formoterol Filtrate osmolality: 66 mOsm/kG
[1]; 50 mM citrate, pH 4
  Formoterol Filtrate osmolality: 113 mOsm/kG
[1]; 50 mM citrate, pH 5
  Formoterol Filtrate osmolality: 130 mOsm/kG
[1]; 50 mM citrate, pH 6
  Formoterol Filtrate osmolality: 140 mOsm/kG
[1]; 50 mM citrate, pH 7
  Formoterol Filtrate osmolality: 146 mOsm/kG
[1]; 100 mM citrate, pH 4
  Formoterol Filtrate osmolality: 205 mOsm/kG
[1]; 100 mM citrate, pH 5
  Formoterol Filtrate osmolality: 249 mOsm/kG
[1]; 100 mM citrate, pH 6
  Formoterol Filtrate osmolality: 275 mOsm/kG
[1]; 100 mM citrate, pH 7
  Formoterol Filtrate osmolality: 278 mOsm/kG
[1]; 200 mM citrate, pH 4
  Formoterol Filtrate osmolality: 392 mOsm/kG
[1]; 200 mM citrate, pH 5
  Formoterol Filtrate osmolality: 473 mOsm/kG
[1]; 200 mM citrate, pH 6
  Formoterol Filtrate osmolality: 527 mOsm/kG
[1]; 200 mM citrate, pH 7
  Formoterol Filtrate osmolality: 543 mOsm/kG
[2]; 20 mM citrate, pH 4
  Formoterol solubility: 2710 µg/mL
[2]; 20 mM citrate, pH 5
  Formoterol solubility: 2350 µg/mL
[2]; 20 mM citrate, pH 6
  Formoterol solubility: 2470 µg/mL
[2]; 20 mM citrate, pH 7
  Formoterol solubility: 2330 µg/mL
[2]; 50 mM citrate, pH 4
  Formoterol solubility: 3690 µg/mL
[2]; 50 mM citrate, pH 5
  Formoterol solubility: 2770 µg/mL
[2]; 50 mM citrate, pH 6
  Formoterol solubility: 2780 µg/mL
[2]; 50 mM citrate, pH 7
  Formoterol solubility: 2920 µg/mL
[2]; 100 mM citrate, pH 4
  Formoterol solubility: 3010 µg/mL
[2]; 100 mM citrate, pH 5
  Formoterol solubility: 2690 µg/mL
[2]; 100 mM citrate, pH 6
  Formoterol solubility: 2870 µg/mL
[2]; 100 mM citrate, pH 7
  Formoterol solubility: 2600 µg/mL
[2]; 200 mM citrate, pH 4
  Formoterol solubility: 3690 µg/mL
[2]; 200 mM citrate, pH 5
  Formoterol solubility: 2900 µg/mL
[2]; 200 mM citrate, pH 6
  Formoterol solubility: 2720 µg/mL
[2]; 200 mM citrate, pH 7
  Formoterol solubility: 2840 µg/mL
[2]; citrate buffer concentrations between 20 and 200 mM at pH 4 to pH 7
  solubility: > 1000 µg/mL
[3]; 5° C.
  estimated shelf-life: about 6.2 years
[3]; 25° C.
  estimated shelf-life: about 7.5 months
[3]; pH 3
  rate constant of decomposition: approximately 0.62 day^1
[3]; pH 4
  rate constant of decomposition: ~0.11 day^1
[3]; pH 5
  rate constant of decomposition: ~0.044 day^1
[3]; pH 7
  rate constant of decomposition: ~0.55 day^1
